{
  "source": "paper PMC3326533",
  "about": "(Cell, 2008)",
  "target": "XPD (S. acidocaldarius) (Sulfolobus acidocaldarius, UniProt Q4JC68)",
  "sequence (Q4JC68 whole entry)": "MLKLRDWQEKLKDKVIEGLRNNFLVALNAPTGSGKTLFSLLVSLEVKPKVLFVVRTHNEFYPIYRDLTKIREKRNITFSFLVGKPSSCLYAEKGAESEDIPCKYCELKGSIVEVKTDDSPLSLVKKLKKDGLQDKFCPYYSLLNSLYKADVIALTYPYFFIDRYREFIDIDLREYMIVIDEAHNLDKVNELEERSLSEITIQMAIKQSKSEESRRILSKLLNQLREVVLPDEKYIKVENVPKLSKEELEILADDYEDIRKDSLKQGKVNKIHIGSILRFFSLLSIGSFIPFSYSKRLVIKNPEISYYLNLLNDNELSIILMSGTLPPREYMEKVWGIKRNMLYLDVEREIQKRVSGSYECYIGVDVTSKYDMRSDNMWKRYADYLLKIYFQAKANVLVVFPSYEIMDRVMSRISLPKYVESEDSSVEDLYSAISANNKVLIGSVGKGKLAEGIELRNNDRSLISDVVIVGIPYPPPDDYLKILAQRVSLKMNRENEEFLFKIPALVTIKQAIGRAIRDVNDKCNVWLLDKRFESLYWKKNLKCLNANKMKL",
  "conditions": "ssDNA-stimulated; temperature and pH not stated here",
  "data": [
    {"smiles": "Nc1ncnc2c1ncn2[C@@H]1O[C@H](COP(=O)(O)OP(=O)(O)OP(=O)(O)O)[C@@H](O)[C@H]1O", "note": "[ATP]", "values": [
      {"measurement": "ATPase rate", "result": "Plot of the ssDNA-stimulated ATPase activities of the indicated wild-type and mutant proteins"}
    ]}
  ]
}
